Tests used:
[1] = test system: hiPSC chondrogenic pellets; experiment: scRNA-seq of hiPSC chondrogenic pellets with WNT inhibition; format: cell-based, human
Description: On the day of collection for bulk RNA-seq experiments, 3-4 pellets per experimental group were pooled together and washed once with phosphate-buffered saline (PBS), snap-frozen in 300 μl of Buffer RL (Norgen Biotek), and stored at −80° C. until processing for RNA extraction. At harvesting time points for scRNA-seq experiments, 6-8 pellets per experimental group were pooled and digested with 0.04% Type II collagenase solution in DMEM/F12 for 1 h. Cells were washed once with PBS, resuspended in standard freezing medium, and stored in liquid nitrogen until needed.
WNT-C59 and ML329 treatment for WNT and MITF inhibition. For WNT-C59 treatment for WNT inhibition during chondrogenesis, pellets were treated with either 10 ng ml^−1 TGF-β3 (control group) or a combination of 10 ng ml^−1 TGF-β3 and 1 μM WNT-C59 in a chondrogenic medium from d0 to d42 as appropriate. For WNT-C59 and ML329 treatment (ML, Axon Medchem, HY-101464) for WNT and MITF inhibition during chondrogenesis, pellets were treated with either 10 ng ml^−1 TGF-β3 (control group), a combination of 10 ng ml^−1 TGF-β3 and 1 μM ML, a combination of 10 ng ml^−1 TGF-β3 and 1 μM WNT-C59, or a combination of 10 ng ml^−1 TGF-β3, 1 μM ML and 1 μM WNT-C59 in chondrogenic medium from d0 to d42 as appropriate.
10× chromium platform scRNA-seq. Cells were thawed at 37° C. and resuspended in PBS with 0.04% bovine serum albumin at a concentration of 2000 cells per μl. Cell suspensions were submitted to the GTAC sequencing core at Washington University in St. Louis for library preparation and sequencing. In brief, 10,000 cells per sample were loaded on a Chromium Controller (10× Genomics) for single capture. Libraries were prepared using Single Cell 3′ Library & Gel Bead Kit v2 (#120237 10× Genomics) following the manufacture's instruction. A single cell emulsion (Gel Bead-In-EMulsions, GEMs) is created by making barcoded cDNA unique to each individual emulsion. A recovery agent was added to break GEM and cDNA was then amplified. A library is produced via end repair, dA-tailing, adapter ligation, post-ligation cleanup with SPRIselect, and sample index PCR. The quality and concentration of the amplified cDNA were evaluated by Bioanalyzer (Agilent 2100) on a High Sensitivity DNA chip (Agilent, #5065-4401). The only cDNA with an average library size of 260-620 bp were used for sequencing. Sequencing was performed by IIlumina HiSeq2500 with the following read length: 26 bp for Read1, 8 bp for i7 Index, and 98 bp for Read2. We generally acquired ˜180 million reads per library (sample). A species mixing experiment (mouse adipose stem cells and human iPSCs, 1:1 mixture) was also performed prior to running on the actual sample to ensure good quality of single-cell capture (i.e., cell doublet rate<5%).
Preprocessing of scRNA-seq data. Paired-end sequencing reads were processed by Cell Ranger (10× Genomics software, version 2.0.0). Reads were aligned to the GRCh38 (version 90) for genome annotation, demultiplexing, barcode filtering, and gene quantification. Cell Ranger also removes any barcode that has less than 10% of the 99th percentile of total unique molecular identifiers (UMI) counts per barcode as these barcodes are considered to be associated with empty droplets. After this quality control, gene barcode matrices for each sample were generated by counting the number of UMIs for a given gene (as a row) in the individual cell (as a column). For each sample, ˜1300-2500 cells were captured.
Unsupervised clustering analysis and annotation. To assess the difference in the composition of cell populations, global unsupervised clustering analysis was performed for our scRNA-seq datasets. First, gene barcode matrices were input into the Seurat R package (version 2.4). Then, the low-quality cells with less than 200 or more than 7000 detected genes or if their mitochondrial gene content was more than 5% were removed. […]

[2] = test system: hiPSC chondrogenic pellets; experiment: Safranin-O histology of hiPSC chondrogenic pellets; format: cell-based, human
Description: Chondrogenic differentiation. Cells dissociated at the Cp stage were resuspended at 5×10^5 cells per mL in chondrogenic medium consisting of DMEM/F-12, 1% FBS, 1% ITS+, 55 μM β-mertcaptoethanol, 100 nM dexamethasone (DEX; Sigma-Aldrich, #D4902), 1% NEAA (Gibco, #11140050), 1% P/S, 10 ng ml^−1 human transforming growth factor-beta 3 (TGF-β3; R&D Systems, #243-B3-010), 50 μg ml^−1 L-ascorbic acid 2-phosphate (ascorbate; Sigma-Aldrich, #A8960), and 40 μg ml^−1 L-Proline (proline; Sigma-Aldrich, #P5607). Cells were then centrifuged for 5 min at 300×g to form a pellet. Chondrogenic pellets were cultured at 37° C. for up to the timepoints required for various experiments.
WNT-C59 and ML329 treatment for WNT and MITF inhibition. For WNT-C59 treatment for WNT inhibition during chondrogenesis, pellets were treated with either 10 ng ml^−1 TGF-β3 (control group) or a combination of 10 ng ml^−1 TGF-β3 and 1 μM WNT-C59 in a chondrogenic medium from d0 to d42 as appropriate. For WNT-C59 and ML329 treatment (ML, Axon Medchem, HY-101464) for WNT and MITF inhibition during chondrogenesis, pellets were treated with either 10 ng ml^−1 TGF-β3 (control group), a combination of 10 ng ml^−1 TGF-β3 and 1 μM ML, a combination of 10 ng ml^−1 TGF-β3 and 1 μM WNT-C59, or a combination of 10 ng ml^−1 TGF-β3, 1 μM ML and 1 μM WNT-C59 in chondrogenic medium from d0 to d42 as appropriate. […]

[3] = trajectory vs TGF-β3-treated pellets

Cc1cc(-c2ccc(CC(=O)Nc3ccc(-c4cccnc4)cc3)cc2)ccn1 [WNT-C59]
neural cells and melanocytes in pellets ([1]; WNT-C59-treated pellets d7-d42): significantly decreased
percentage of BMP4-expressing cells ([1]; d14, all clusters except ISG15/IFI6/MX1+ chondrocytes): decreased percentage
percentage of GDF5 and BMPR1B expressing cells ([1]; d14, all clusters vs TGF-β3-treated): remarkably increased percentage
percentage of cells expressing BMPR2 ([1]; d14, several chondrocyte subpopulations): decreased
expression of most WNTs ([1]; d14 and d28 pellets, particularly proliferative cells): decreased expression
FRZB expression in chondrocyte population ([1]; d14 pellets): upregulated
ID2 (neurogenic marker) in proliferative cells ([1]; d14 pellets): decreased
PRG4 in mesenchymal cells ([1]; d14 pellets): increased
mesenchyme and chondrocytes content ([1]; d14 pellets vs TGF-β3 only): more
IFI6 and ISG15 (mature-hypertrophic chondrocyte markers) ([1]; d28 pellets): downregulated
expression of ACAN and COMP ([1]; d28 pellets vs standard-treated): increased
chondrogenic markers [1, 3]: enriched expression
neurogenic markers [1, 3]: little, if any
ACAN expression in pseudotime ([1]; vs TGF-β3 alone): earlier induction
COL2A1 and SOX9 expression in pseudotime ([1]; vs TGF-β3 alone): higher levels
SOX2 expression in pseudotime ([1]; vs TGF-β3 alone): earlier decrease
chondrogenesis when WNTs inhibited at the Cp stage ([2]; WNT-C59 at Cp stage): severely impaired
chondrocyte homogeneity (Saf-O staining) ([2]; treatment during pellet culture, vs standard TGF-β3): increased

From patent US20230295571A1, “COMPOSITIONS AND METHODS FOR STEM CELL CHONDROGENESIS” (Washington University, priority 2020, published 2023)
